This is an account of results in PubChem BioAssay (NCI).

Some test systems named below: A498 renal; A549 NSCLC; ACHN renal; DU-145 prostate; MCF7 breast; SK-MEL-2 melanoma; SK-OV-3 ovarian; OVCAR-5 ovarian.
Holding throughout (assay): NCI anticancer screen, dose series, 48 h

“And” between values parts separate entries of the source, which are not always exact repeats. Equal entries are not always repeated.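 48-hour exposure; five concentrations; linearly interpolated endpoints. At the GI50, growth is halved. TGI: total growth inhibition.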 Some results are limits rather than exact numbers.

Turning to `Cc1[nH]nc(C(F)(F)F)c1N=NN(C)C`, the TGI in the assay on A498 renal was over 100 µM; in the assay on A549 NSCLC, over 100 µM; with ACHN renal, 18.9 µM; in the assay with DU-145 prostate, 24.2 µM; in the assay with MCF7 breast, 14.6 µM; in the assay with SK-MEL-2 melanoma, 35.5 µM. The compound also showed a TGI in the assay with SK-OV-3 ovarian of 25 µM.
Take `COc1ccc2cc(/C=C/C(=O)c3ccc(Cl)cc3Cl)ccc2c1`: the GI50 in the assay with A498 renal was 28.8 µM; with A549 NSCLC it was 26 µM; in the assay with ACHN renal, 35.4 µM; in the assay on DU-145 prostate, 32.6 µM; with MCF7 breast, 4.83 µM; with OVCAR-5 ovarian it was 45.7 µM. In addition, the GI50 in the assay with SK-MEL-2 melanoma was 24 µM. The TGI in the assay with A498 renal is 58.9 µM; with A549 NSCLC, over 100 µM; in the assay with ACHN renal, over 100 µM; in the assay on DU-145 prostate, over 100 µM; in the assay with MCF7 breast it was 43.4 µM; in the assay with OVCAR-5 ovarian, over 100 µM. Moreover, in the assay with SK-MEL-2 melanoma, the TGI came out at 69.9 µM.
Consider `Cn1c(-c2c(N)n(Nc3cccc(Cl)c3)c3nc(C#N)c(C#N)nc23)nc2ccccc21`, for which the GI50 was 6.56 µM with A498 renal; 10.9 µM in the assay with A549 NSCLC; 5.44 µM with ACHN renal; 6.46 µM with DU-145 prostate; 4.96 µM with MCF7 breast; 5.85 µM in the assay with SK-MEL-2 melanoma. Besides, the GI50 in the assay with SK-OV-3 ovarian is 13.4 µM. In addition, the TGI was 16.6 µM in the assay on A498 renal; 35.4 µM in the assay on A549 NSCLC; 15 µM with ACHN renal; 15.4 µM in the assay with DU-145 prostate; over 50 µM in the assay on MCF7 breast; 18.9 µM in the assay on SK-MEL-2 melanoma. Moreover, the TGI in the assay on SK-OV-3 ovarian stood at 43 µM.
As to `COc1cc2c(c(OC)c1OC)-c1ncc3c(OC)c(OC)c(OC)cc3c1C2`, the GI50 with A549 NSCLC was 27.7 µM; in the assay on ACHN renal it was 31.2 µM; in the assay with DU-145 prostate, 29.6 µM; in the assay on OVCAR-5 ovarian, 17.4 µM; in the assay on SK-MEL-2 melanoma it was 30.8 µM; with SK-OV-3 ovarian, 29.5 µM. Also, the TGI is over 100 µM with A549 NSCLC; over 100 µM in the assay with ACHN renal; over 100 µM in the assay on DU-145 prostate; 77.9 µM with OVCAR-5 ovarian; 74.4 µM with SK-MEL-2 melanoma; 74.9 µM in the assay with SK-OV-3 ovarian.
As for `C=CCn1c(C)nc2ccc(Nc3nc(Nc4ccc(F)cc4)nc4ccccc34)cc21`, the GI50 with A498 renal is 4.36 µM; in the assay with A549 NSCLC, 4.18 µM; with ACHN renal it was 1.99 µM; in the assay on DU-145 prostate, 8.63 µM; in the assay on OVCAR-5 ovarian it was 11.6 µM; in the assay on SK-MEL-2 melanoma, 3.16 µM. For the same compound, the TGI in the assay on A498 renal was determined as 24.1 µM; with A549 NSCLC it was 22.2 µM; with ACHN renal, 4.31 µM; in the assay on DU-145 prostate, 22.8 µM; with OVCAR-5 ovarian, 26.6 µM; in the assay with SK-MEL-2 melanoma it was 11.4 µM.
In the case of `COc1ccc(S(=O)(=O)N2CCN(C(=O)c3ccc(-c4ccccc4)cc3)CC2C(=O)NO)cc1` (configuration not stated), the GI50 in the assay on A549 NSCLC was 8.47 µM and 30.7 µM; in the assay on ACHN renal, 3.28 µM and 20.6 µM; in the assay on MCF7 breast, 0.714 µM; in the assay with SK-OV-3 ovarian it was over 100 µM. Besides, the TGI with A549 NSCLC was 12.5 µM and 82.2 µM; with ACHN renal, 12.5 µM and 99.5 µM; with MCF7 breast, 3.2 µM; in the assay on OVCAR-5 ovarian, 12.5 µM and > 100 µM; with SK-OV-3 ovarian it was over 100 µM.
As to `COc1ccc(NC(=O)CSC2=C(Nc3cccc(Br)c3)C(=O)N(Cc3ccccc3)C2=O)cc1Cl`, the GI50 with A549 NSCLC was 62.4 µM; in the assay on ACHN renal it was over 100 µM; in the assay on DU-145 prostate, over 100 µM; in the assay with MCF7 breast, 15.9 µM; in the assay with SK-MEL-2 melanoma, over 100 µM; in the assay on SK-OV-3 ovarian, over 100 µM. The TGI in the assay with A549 NSCLC, in the assay with ACHN renal, with DU-145 prostate, in the assay with MCF7 breast, with SK-MEL-2 melanoma and with SK-OV-3 ovarian was over 100 µM throughout.
Consider `Cc1nc(N)nc2c1CCC(O)S2` (configuration not stated), for which the GI50 in the assay with A498 renal is 17.7 µM; in the assay with A549 NSCLC it was 19.3 µM; in the assay with ACHN renal, 22 µM; with DU-145 prostate it was 3.5 µM; with MCF7 breast it was 3.02 µM; with OVCAR-5 ovarian, 20.7 µM. Also, the GI50 with SK-OV-3 ovarian is 11.3 µM. Also, the TGI in the assay on A498 renal was 93.1 µM; in the assay on A549 NSCLC, 78.2 µM; in the assay on ACHN renal, over 100 µM; with DU-145 prostate, 12.2 µM; in the assay on MCF7 breast it was 10.4 µM; with OVCAR-5 ovarian it was 74.3 µM. The TGI in the assay on SK-OV-3 ovarian was determined as 25.6 µM.
With `COc1ccc(/C=C/C(=O)/C=C/c2cc3ccccc3[nH]c2=O)cc1`, the GI50 is 5.73 µM in the assay on A498 renal; 3.16 µM in the assay with A549 NSCLC; 3.81 µM in the assay on ACHN renal; 3.36 µM with DU-145 prostate; 2.11 µM in the assay on MCF7 breast; 5.13 µM in the assay with OVCAR-5 ovarian. In addition, in the assay on SK-OV-3 ovarian, the GI50 was 9.22 µM. Besides, the TGI in the assay with A498 renal stood at 18.8 µM; with A549 NSCLC, 12.6 µM; in the assay with ACHN renal, 15.5 µM; in the assay with DU-145 prostate it was 10.3 µM; with MCF7 breast, 11.1 µM; in the assay on OVCAR-5 ovarian, 19.9 µM. Also, in the assay with SK-OV-3 ovarian, the TGI was 26.7 µM.
On to `S=c1snc2n1CCN2`, for which the GI50 in the assay with A498 renal is 65 µM; with A549 NSCLC it was over 100 µM; in the assay with ACHN renal, over 100 µM; with DU-145 prostate, 91.3 µM; in the assay with MCF7 breast, 39.3 µM; in the assay on OVCAR-5 ovarian, over 100 µM. In addition, the TGI with A498 renal, with A549 NSCLC, with ACHN renal, in the assay on DU-145 prostate, in the assay with MCF7 breast and in the assay with OVCAR-5 ovarian was over 100 µM throughout.
In the case of `CCOC(=O)C(Cc1c[nH]c2c(N(CCO)CCO)cccc12)(NC(C)=O)C(=O)OCC`, the GI50 in the assay with A549 NSCLC is over 1000 µM; in the assay on ACHN renal, 119 µM; in the assay with DU-145 prostate, 499 µM; in the assay on MCF7 breast, 141 µM; in the assay on OVCAR-5 ovarian, over 1000 µM; in the assay on SK-OV-3 ovarian, over 1000 µM. Also, the TGI is over 1000 µM with A549 NSCLC; over 1000 µM in the assay with ACHN renal; over 1000 µM in the assay with DU-145 prostate; 305 µM with MCF7 breast; over 1000 µM in the assay with OVCAR-5 ovarian; over 1000 µM with SK-OV-3 ovarian.
